The source made the active and inactive calls.

This note sets out measurements from ChEMBL document CHEMBL4418495, “Entpd5 inhibitors” (2012).

In series [1] the target is T1, Ectonucleoside triphosphate diphosphohydrolase 5 (Mus musculus) (UniProt Q9WUZ9).
T1 sequence (whole entry): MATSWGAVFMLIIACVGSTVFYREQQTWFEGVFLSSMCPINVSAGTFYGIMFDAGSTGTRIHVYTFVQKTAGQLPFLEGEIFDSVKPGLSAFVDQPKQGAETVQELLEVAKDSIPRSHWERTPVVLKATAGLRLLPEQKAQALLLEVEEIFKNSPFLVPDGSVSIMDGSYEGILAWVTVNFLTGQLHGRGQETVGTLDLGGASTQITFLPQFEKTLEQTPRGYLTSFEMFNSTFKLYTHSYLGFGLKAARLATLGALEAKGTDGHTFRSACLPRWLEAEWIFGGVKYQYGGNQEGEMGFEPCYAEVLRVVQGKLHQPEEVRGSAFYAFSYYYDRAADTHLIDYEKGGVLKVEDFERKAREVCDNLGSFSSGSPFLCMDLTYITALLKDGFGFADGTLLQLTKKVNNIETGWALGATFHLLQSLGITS
The experiment in a line: Inhibition of ENTPD5 in PTEN knockout mouse MEF cells assessed as induction of ER stress by measuring increase in GRP78/BiP expression at 30 uM incubated for 24 hrs by Western blotting analysis. The class given is cell-based.

The target of series [2] is T1, Ectonucleoside triphosphate diphosphohydrolase 5 (Mus musculus). The series is described as follows: Inhibition of ENTPD5 in PTEN knockout mouse MEF cells assessed as induction of ER stress by measuring increase in GRP78/BiP expression incubated for 24 hrs by Western blotting analysis. The series is classed as cell-based. On the technique in general: A western blot detects proteins with antibodies after separation by electrophoresis.

Series [3] shares this target. The experiment in a line: Inhibition of ENTPD5 in PTEN knockout mouse MEF cells assessed as induction of ER stress by measuring increase in EGF receptor degradation incubated for 24 hrs by Western blotting analysis. The series is classed as cell-based.
For series [4], the system named is LNCaP. The series is described as follows: Antitumor activity against human LNCAP cells xenografted in mouse assessed as induction of tumor shrinkage at 1 to 100 mg/kg, ip dosed every other day and measured after 6 weeks by microscopy. The series is classed as functional, organism-based. In general terms: In xenograft studies the graft and the host belong to different species.

The test system of series [5] is LNCaP. The experiment in a line: Antitumor activity against human LNCAP cells xenografted in mouse assessed as reduction in cells left in matrigels at 1 to 100 mg/kg, ip dosed every other day and measured after 6 weeks by hematoxylin and eosin staining based microscopy. The series is classed as functional, organism-based.
Series [6] concerns the target T2, Nucleoside diphosphate phosphatase ENTPD5 (Homo sapiens) (UniProt O75356).
T2 sequence (whole entry): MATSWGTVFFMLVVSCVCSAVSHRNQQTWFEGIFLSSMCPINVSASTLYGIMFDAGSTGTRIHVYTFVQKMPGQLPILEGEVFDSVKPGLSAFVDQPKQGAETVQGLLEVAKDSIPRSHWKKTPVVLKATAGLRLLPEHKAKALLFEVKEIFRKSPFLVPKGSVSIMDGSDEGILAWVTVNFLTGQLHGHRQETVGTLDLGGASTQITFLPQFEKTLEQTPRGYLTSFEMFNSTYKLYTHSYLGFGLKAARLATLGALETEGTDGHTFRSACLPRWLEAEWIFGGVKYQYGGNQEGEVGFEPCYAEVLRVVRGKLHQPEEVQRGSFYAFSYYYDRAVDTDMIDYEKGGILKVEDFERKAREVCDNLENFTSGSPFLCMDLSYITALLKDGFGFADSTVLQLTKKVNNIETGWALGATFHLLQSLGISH
The experiment in a line: Inhibition of human recombinant ENTPD5 expressed in insect cells assessed as reduction in UDP hydrolysis at 1 uM incubated for 1 hr in presence of UMP, GTP and ATP by Escherichia coli UMP kinase pyrH catalyzed UMP phosphorylation coupled luciferase assay.

The target of series [7] is T2, Nucleoside diphosphate phosphatase ENTPD5 (Homo sapiens). The series is described as follows: Inhibition of human recombinant ENTPD5 expressed in insect cells assessed as reduction in UDP hydrolysis up to 10 uM incubated for 1 hr in presence of UMP, GTP and ATP by Escherichia coli UMP kinase pyrH catalyzed UMP phosphorylation coupled luciferase assay.
Series [8] has as its target T3, Uridylate kinase (Escherichia coli (strain K12)) (UniProt P0A7E9).
T3 sequence (whole entry): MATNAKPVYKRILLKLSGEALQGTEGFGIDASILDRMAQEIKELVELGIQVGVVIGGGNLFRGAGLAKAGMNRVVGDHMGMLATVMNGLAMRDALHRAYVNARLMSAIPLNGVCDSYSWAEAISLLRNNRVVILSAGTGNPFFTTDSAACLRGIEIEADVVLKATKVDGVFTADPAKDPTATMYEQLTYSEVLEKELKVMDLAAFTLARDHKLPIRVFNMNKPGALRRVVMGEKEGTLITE
The series is described as follows: Inhibition of recombinant Escherichia coli UMP kinase pyrH catalyzed UMP phosphorylation in presence of GTP and ATP incubated for 1 hr by luminescence based assay.

Series [9] addresses T2, Nucleoside diphosphate phosphatase ENTPD5 (Homo sapiens). The series is described as follows: Inhibition of human recombinant ENTPD5 expressed in insect cells assessed as reduction in reduction in UDP hydrolysis by measuring inorganic phosphate release incubated for 1 hr by malachite green based assay.
In series [10] the target is T4, Nucleoside diphosphate phosphatase ENTPD5 (Homo sapiens, UniProt O75356).
T4 sequence (O75356 whole entry): T2 sequence (whole entry)
The series is described as follows: Inhibition of human recombinant ENTPD5 expressed in insect cells assessed as reduction in UDP hydrolysis incubated for 1 hr in presence of UMP, GTP and ATP by Escherichia coli UMP kinase pyrH catalyzed UMP phosphorylation coupled luciferase assay.

In another series the test system is MEF. The experiment in a line: Toxicity in PTEN knockout mouse MEF cells assessed as reduction in cell viability at 30 uM incubated for 24 hrs. The class given is cell-based.

For the compound `COc1ccc(-n2cccc2/C=C2\C(=O)NC(=S)N(c3cccc(Br)c3)C2=O)cc1`, the inhibition entry in [1], in [6] and in [9] was “Active” each time. Also, the inhibition entry in [2], in series [3] and in series [7] was “Dose-dependent effect” throughout. Further, the outcome in the series on LNCaP [4] and in the series on LNCaP [5] was Active. Also, the inhibition entry in [8] was “inactive”.

`CCOc1ccc(N2C(=O)/C(=C/c3cccn3-c3ccc(Br)cc3)C(=O)NC2=S)c(F)c1`: the inhibition result in series [1], in series [6] and in series [9] was “Active” each time. The inhibition entry in series [2], in series [3] and in [7] was “Dose-dependent effect” each time. Besides, the outcome in the series on LNCaP [4] and with LNCaP [5] was Active. For the same compound, the inhibition entry in series [8] was “inactive”.

Turning to `C[C@H]1CC[C@]2(C)C(CCCC2(C)C)[C@]1(C)c1cc(O)ccc1O` (stereo not given in full), in series [10], the IC50 turned out to be 30 µM.

Regarding `CC1(C)CCC[C@]2(C)[C@H]3Cc4cc(O)ccc4O[C@]3(C)CC[C@@H]12`, in series [10], the IC50 is 10 µM.

As to `C[C@H]1CC[C@@H]2C(CCCC2(C)C)[C@]1(C)c1cc(O)ccc1O` (stereo not given in full), in series [10], the IC50 was determined as 30 µM.

`C[C@H]1CC[C@H]2C(C)(C)CCC[C@]23Oc2ccc(O)cc2C[C@]13C` [AUREOL]: the IC50 in [10] was in the range of 15 to 20 µM. For the same compound, the Activity result in the series on MEF is on record as “Toxic”.

As to `O=C(CN1C(=O)/C(=C2\SC(N3CCOCC3)=NC2=O)c2ccccc21)Nc1cccc(Br)c1`, the inhibition entry in series [1], in series [6] and in series [9] was “Active” each time. In addition, the outcome with LNCaP [4] and in the series on LNCaP [5] was Active. Further, in [7], the inhibition entry is “Dose-dependent effect”. In [8], the inhibition result is “inactive”.

What is called IC50 is the concentration at which inhibition is half-maximal.
